In US11046686B2, “Thiadiazole IRAK4 compounds” (Gilead Sciences, Inc., priority 2018, dated 2021) one finds EC50 data, which are given here for 37 compounds.

SMILES strings stand for the structures.

One assay relates to TNFα. The assay is described as follows: IRAK4 Monocyte TNFα Cell Based Assay. Set-up: species or system human. The settings on record: Homo sapiens, Monocyte, human monocytes, LPS stimulated; compounds 1-32; read-out: EC50 TNF. The method, then:
IRAK4 Monocyte TNFα Cell Based Assay Procedure:
The cell suspension was then plated at a density of 5,000 cells/well onto black 384 well Greiner clear bottom plates. Plates were pre-spotted with test compounds and serially diluted in DMSO where 40 nL/well were delivered using the Echo 550 acoustic liquid dispenser (Labcyte®) for a final DMSO concentration of 0.1%. Plated cells were treated with compound for 1 hour at 37° C. Cells were then stimulated with 50 pg/ml of LPS (Sigma) excluding outside columns of plate used for unstimulated cell control wells. Cells were incubated for an additional 4 hours at 37° C. Cells were then spun out of the media and 5 μl of sample were taken and analyzed for total TNFα content using the TR-FRET Human TNFα detection system (CisBio). This system utilizes two labeled antibodies (cryptate and XL665) that bind to two different epitopes of the TNFα molecule and produce FRET signal proportional to the concentration of TNFα in the sample. Detection antibodies are mixed 50:50 and 5 μL were dispensed into each well. Plates were covered with clear seals and incubated at room temp overnight. […] Percent of control was calculated as follows: % Control=100×(Ratiosample−Ratio0% stimulation)/(Ratio100% Stimulation−Ratio0% Stimulation) where unstimulated cells (0% stimulation) were the negative control and stimulated cells (100% stimulation) were used as the positive control.
As usually defined, the EC50 is the concentration needed to bring the measured effect to its halfway point. As to `CC(=O)NC1CCN(C(=O)c2nnc(-c3cnc(-c4ccc5cc(C#N)cnn45)cc3NC(C)C)s2)CC1` [Example 8, N-(1-(5-(6-(3-cyanopyrrolo[1,2-b]pyridazin-7-yl)-4-(isopropylamino)pyridin-3-yl)-1,3,4-thiadiazole-2-carbonyl)piperidin-4-yl)acetamide], the EC50 stood at 7540 nM.
The same measure, in the same setting: the value for `CC(C)Nc1cc(-c2ccc3cc(C#N)cnn23)ncc1-c1nnc(C(=O)N2CCCC2)s1` [Example 9, 7-(4-(isopropylamino)-5-(5-(pyrrolidine-1-carbonyl)-1,3,4-thiadiazol-2-yl)pyridin-2-yl)pyrrolo[1,2-b]pyridazine-3-carbonitrile] was 2130 nM.
As for `CC(=O)N[C@H]1CC[C@H](c2nnc(-c3cnc(-c4ccc5cc(C#N)cnn45)cc3NC(C)C)s2)CC1` [Example 24, N-((1r,4r)-4-(5-(6-(3-cyanopyrrolo[1,2-b]pyridazin-7-yl)-4-(isopropylamino)pyridin-3-yl)-1,3,4-thiadiazol-2-yl)cyclohexyl)acetamide], the EC50 was 14 nM.
Regarding `CC(C)Nc1cc(-c2ccc3cc(C#N)cnn23)ncc1-c1nnc(N2CCCC2)s1` [Example 29, 7-(4-(isopropylamino)-5-(5-(pyrrolidin-1-yl)-1,3,4-thiadiazol-2-yl)pyridin-2-yl)pyrrolo[1,2-b]pyridazine-3-carbonitrile], the EC50 was determined as 4180 nM.

Still in this assay, the particulars now being: human monocytes, LPS stimulated; compounds 1-32; read-out: EC50 TNF.
On to `CC(C)Nc1cc(-c2ccc3cc(C#N)cnn23)ncc1-c1nnc(C2CCOCC2)s1` [Example 32], for which the concentration giving a half-maximal response (EC50) was determined as 211 nM.

Staying with this assay, now noted: human monocytes; second part of Table 2, compounds 33-343; unit inferred; read-out: EC50 MONO TNF HTRF.
As for `CC(C)Nc1cc(-c2ccc3cc(C#N)cnn23)ncc1-c1nnc(CC#N)s1` [Compound 321], the concentration for a half-maximal effect (EC50) came out at 53.5 nM.
On to `CC(C)Nc1cc(-c2ccc3cc(C#N)cnn23)ncc1-c1nnc(C2CCOC2)s1` (stereo not shown) [Compound 322], for which the EC50 came out at 419 nM.
Take `CC(=O)N[C@H]1CN(c2nnc(-c3cnc(-c4ccc5cc(C#N)cnn45)cc3NC(C)C)s2)CC12CC2` [Compound 323]: the EC50 was 3.7 nM.
On the same count and under the same terms, the value for `CC(=O)N[C@@H]1CN(c2nnc(-c3cnc(-c4ccc5cc(C#N)cnn45)cc3NC(C)C)s2)CC12CC2` [Compound 324] was 19.1 nM.
Consider `CC(C)Nc1cc(-c2ccc3cc(C#N)cnn23)ncc1-c1nnc(-n2cccn2)s1` [Compound 325], for which the EC50 was 1000 nM.
For the compound `CC(=O)NC1CN(c2nnc(-c3cnc(-c4ccc5cc(C#N)cnn45)cc3NC(C)C)s2)CC1(F)F` (stereo not shown) [Compound 327], the EC50 was 10.2 nM.
On the same count and under the same terms, the value for `CC(C)Nc1cc(-c2ccc3cc(C#N)cnn23)ncc1-c1nnc(N2CC(N3CCC(F)(F)C3)C2)s1` [Compound 328] was 80.5 nM; that for `CC(C)Nc1cc(-c2ccc3cc(C#N)cnn23)ncc1-c1nnc(N2CCC[C@H]2CO)s1` [Compound 329] was 54.2 nM; that for `CC(=O)N[C@@H]1CCN(c2nnc(-c3cnc(-c4ccc5cc(C#N)cnn45)cc3NC(C)C)s2)C1` [Compound 330] was 47.1 nM.
Still for that read-out and setting: then `CC(=O)N[C@H]1CCN(c2nnc(-c3cnc(-c4ccc5cc(C#N)cnn45)cc3NC(C)C)s2)C1` [Compound 331], with 81.4 nM; and `CC(C)Nc1cc(-c2ccc3cc(C#N)cnn23)ncc1-c1nnc(C2CCC(C#N)CC2)s1` (stereo not shown) [Compound 333], with 1000 nM.
On the same count and under the same terms, the value for `CC(=O)NC12CCC(c3nnc(-c4cnc(-c5ccc6cc(C#N)cnn56)cc4NC4COC4)s3)(C1)C2` [Compound 334] was 98.9 nM; that for `CC(C)(O)C(=O)NC12CCC(c3nnc(-c4cnc(-c5ccc6cc(C#N)cnn56)cc4NC4COC4)s3)(C1)C2` [Compound 335] was 48.9 nM.
Turning to `CS(C)(=O)=NCC(=O)NC12CCC(c3nnc(-c4cnc(-c5ccc6cc(C#N)cnn56)cc4NC4CCOCC4)s3)(CC1)CC2` [Compound 338], the 50% effective concentration (EC50) came to 2.7 nM.
Still for that read-out and setting: then `CC(C)Nc1cc(-c2ccc3cc(C#N)cnn23)ncc1-c1nnc([C@H]2CC[C@H](NC(=O)CN=S(C)(C)=O)CC2)s1` [Compound 339], with 9.1 nM.
Regarding `CC(C)Nc1cc(-c2ccc3cc(C#N)cnn23)ncc1-c1nnc([C@H]2CC[C@H](NC(=O)C3CCN(C)CC3)CC2)s1` [Compound 340], the EC50 amounted to 9.1 nM.
`CC(C)Nc1cc(-c2ccc3cc(C#N)cnn23)ncc1-c1nnc(C2CCC(NC(=O)C(C)(C)C(=O)O)CC2)s1` (stereo not shown) [Compound 341]: the EC50 is 72.4 nM.
Same read-out and setting: then `COC(=O)N[C@H]1CC[C@H](Nc2cc(-c3ccc4cc(C#N)cnn34)ncc2-c2nnc([C@H]3CC[C@H](NC(C)=O)CC3)s2)CC1` [Example 34, methyl ((1R,4r)-4-((5-(5-((1r,4R)-4-acetamidocyclohexyl)-1,3,4-thiadiazol-2-yl)-2-(3-cyanopyrrolo[1,2-b]pyridazin-7-yl)pyridin-4-yl)amino)cyclohexyl)carbamate], with 4.9 nM.
Same read-out and setting: the value for `CC(=O)N[C@@H]1[C@@H]2CC[C@H]1CN(c1nnc(-c3cnc(-c4ccc5cc(C#N)cnn45)cc3NC(C)C)s1)C2` [Example 38] was 3.5 nM.
`CC(=O)N[C@H]1[C@@H]2CC[C@H]1CN(c1nnc(-c3cnc(-c4ccc5cc(C#N)cnn45)cc3NC(C)C)s1)C2` [Example 39]: the concentration for a half-maximal effect (EC50) turned out to be 10.4 nM.
In the case of `CC(=O)NC[C@H]1CCCN1C(=O)c1nnc(-c2cnc(-c3ccc4cc(C#N)cnn34)cc2NC(C)C)s1` [Example 42], the 50% effective concentration (EC50) is 35.7 nM.
Still for that read-out and setting: then `COC(=O)N[C@H]1CCN(C(=O)c2nnc(-c3cnc(-c4ccc5cc(C#N)cnn45)cc3NC(C)C)s2)C1` [Example 43, methyl (S)-(1-(5-(6-(3-cyanopyrrolo[1,2-b]pyridazin-7-yl)-4-(isopropylamino)pyridin-3-yl)-1,3,4-thiadiazole-2-carbonyl)pyrrolidin-3-yl)carbarnate], with 21.9 nM.
Still for that read-out and setting: the value for `CC(=O)N[C@H]1[C@@H]2C[C@H]1CN(c1nnc(-c3cnc(-c4ccc5cc(C#N)cnn45)cc3NC(C)C)s1)C2` [Example 45] was 11.8 nM; that for `CC(C)Nc1cc(-c2ccc3cc(C#N)cnn23)ncc1-c1nnc(C(=O)N2CC[C@@H](NC(=O)C3CC3)C2)s1` [Example 47] was 5680 nM; that for `COC(=O)NC[C@H]1C[C@H](Nc2cc(-c3ccc4cc(C#N)cnn34)ncc2-c2nnc(N3CCN4CCOC[C@H]4C3)s2)C1` [Example 51, methyl (((1R,3r)-3-((2-(3-cyanopyrrolo[1,2-b]pyridazin-7-yl)-5-(5-((R)-hexahydropyrazino[2,1-c][1,4]oxazin-8(1H)-yl)-1,3,4-thiadiazol-2-yl)pyridin-4-yl)amino)cyclobutyl)methyl)carbamate] was 4.7 nM.
Same read-out and setting: then `COC(=O)NC[C@H]1C[C@H](Nc2cc(-c3ccc4cc(C#N)cnn34)ncc2-c2nnc(N3C[C@H]4CC[C@@H](C3)[C@@H]4NC(C)=O)s2)C1` [Example 52], with 4.1 nM; and `CC(=O)N[C@@H]1[C@@H]2CC[C@H]1CN(c1nnc(-c3cnc(-c4ccc5cc(C#N)cnn45)cc3N[C@H](C)C#N)s1)C2` [Example 53, N-((1R,5S,8S)-3-(5-(4-(((R)-1-cyanoethyl)amino)-6-(3-cyanopyrrolo[1,2-b]pyridazin-7-yl)pyridin-3-yl)-1,3,4-thiadiazol-2-yl)-3-azabicyclo[3.2.1]octan-8-yl)acetamide], with 0.6 nM; and `COC(=O)N[C@H]1CC[C@H](Nc2cc(-c3ccc4cc(C#N)cnn34)ncc2-c2nnc(N3C[C@H]4CC[C@@H](C3)[C@@H]4NC(C)=O)s2)CC1` [Example 54, methyl ((1R,4r)-4-((5-(5-((1R,5S,8S)-8-acetamido-3-azabicyclo[3.2.1]octan-3-yl)-1,3,4-thiadiazol-2-yl)-2-(3-cyanopyrrolo[1,2-b]pyridazin-7-yl)pyridin-4-yl)amino)cyclohexyl)carbamate], with 2.4 nM.
On to `CC(=O)N[C@H]1C[C@H]2CC[C@@H](C1)N2c1nnc(-c2cnc(-c3ccc4cc(C#N)cnn34)cc2NC(C)C)s1` [Example 55, N-((1R,3r,5S)-8-(5-(6-(3-cyanopyrrolo[1,2-b]pyridazin-7-yl)-4-(isopropylamino)pyridin-3-yl)-1,3,4-thiadiazol-2-yl)-8-azabicyclo[3.2.1]octan-3-yl)acetamide], for which the concentration giving a half-maximal response (EC50) amounted to 115 nM.
The same measure, in the same setting: then `CC(=O)N[C@@H]1C[C@H]2CC[C@@H](C1)N2c1nnc(-c2cnc(-c3ccc4cc(C#N)cnn34)cc2NC(C)C)s1` [Example 56, N-((1R,3s,5S)-8-(5-(6-(3-cyanopyrrolo[1,2-b]pyridazin-7-yl)-4-(isopropylamino)pyridin-3-yl)-1,3,4-thiadiazol-2-yl)-8-azabicyclo[3.2.1]octan-3-yl)acetamide], with 8.3 nM; and `CC(C)Nc1cc(-c2ccc3cc(C#N)cnn23)ncc1-c1nnc(N2C[C@H]3CC[C@@H](C2)[C@@H]3NC(=O)N2CCOCC2)s1` [Example 57, N-((1R,5S,8s)-3-(5-(6-(3-cyanopyrrolo[1,2-b]pyridazin-7-yl)-4-(isopropylamino)pyridin-3-yl)-1,3,4-thiadiazol-2-yl)-3-azabicyclo[3.2.1]octan-8-yl)morpholine-4-carboxamide], with 6.8 nM.
The same measure, in the same setting: then `CC(C)Nc1cc(-c2ccc3cc(C#N)cnn23)ncc1-c1nnc(N2C[C@H]3CC[C@@H](C2)[C@@H]3NS(C)(=O)=O)s1` [Example 58, N-((1R,5S,8s)-3-(5-(6-(3-cyanopyrrolo[1,2-b]pyridazin-7-yl)-4-(isopropylamino)pyridin-3-yl)-1,3,4-thiadiazol-2-yl)-3-azabicyclo[3.2.1]octan-8-yl)methanesulfonamide], with 9.3 nM.
